Patent US8697727B2, “N-substituted-heterocycloalkyloxybenzamide compounds and methods of use” (Rigel Pharmaceuticals, Inc., priority 2006, dated 2014)

Tests used:
Type in all cases: cell-based
[1] = system: Human liver cells (HepG2); test: Reduction of glycogen content in liver cells (Amplex Red); conditions: HepG2 cells treated for 16 hours, Amplex Red (FIG. 4)
Protocol: The ability of compounds of the present invention to reduce the glycogen content in liver cells was determined using a functional assay. Human liver cells (HepG2) were seeded in a 96 well plate and on the next day were treated with compounds 1, 2, 94 and 95 for 16 hours. The glycogen content of the cells was determined using Amplex Red.

AMPK [2] = test: Western blot assay for AMPK activity; conditions: gel electrophoresis data relative to GST-gAd (FIG. 3)
Protocol: Western blot assays for AMPK activity were performed on compounds 1, 2, 94 and 95. FIG. 3 presents gel electrophoresis data for compounds 1, 2, 94 and 95 relative to GST-gAd.

AMPK [3] = test: AMPK activation, enzyme-linked immunosorbent assay
Procedure, shortened: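 Cell-based assay in which AMPK activity was measured as the relative concentration of phosphorylated acetyl-CoA carboxylase, a product of AMPK, by enzyme-linked immunosorbent assay. The endpoint is the EC50 for AMPK activation of each compound. EC50 values were reported in ranges: less than 1 μM, 1-10 μM, 10-20 μM, 20-50 μM, 50-100 μM, and >100 μM.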

| SMILES | IC50 value, glycogen content [1] | AMPK activity in the western blot assay (AMPK [2]) | EC50 (AMPK [3]) [µM] |
| --- | --- | --- | --- |
| COc1ccc(CN2CCC(Oc3ccc(C(=O)NC4CCN(Cc5ccccc5)CC4)cc3Cl)CC2)cc1 [Compound 1, N-(1-benzylpiperidin-4-yl)-3-chloro-4-(1-(4-methoxybenzyl)piperidin-4-yloxy)benzamide] | sub-micromolar | strong activity | < 1 |
| CC(C)(C)OC(=O)NCCCNC(=O)c1ccc(OC2CCN(Cc3ccc(C(F)(F)F)cc3)CC2)cc1 [Compound 95, tert-butyl 3-(4-(1-(4-(trifluoromethyl)benzyl)piperidin-4-yloxy)benzamido)propylcarbamate] | sub-micromolar | strong activity | < 1 |
| COc1cc(C(=O)NC2CCN(Cc3ccccc3)CC2)ccc1OC1CCN(Cc2ccccc2)CC1 [Compound 2, N-(1-benzylpiperidin-4-yl)-4-(1-benzylpiperidin-4-yloxy)-3-methoxybenzamide] | sub-micromolar | strong activity | < 1 |
| COc1cc(C(=O)NCCCNC(=O)OC(C)(C)C)ccc1OC1CCN(Cc2ccc(C(F)(F)F)cc2)CC1 [Compound 94, tert-butyl 3-(3-methoxy-4-(1-(4-(trifluoromethyl)benzyl)piperidin-4-yloxy)benzamido)propylcarbamate] | sub-micromolar | strong activity | < 1 |
| O=C(NC1CCN(Cc2ccc(Cl)cc2)CC1)c1ccc(OC2CCN(Cc3ccc(F)c(F)c3)CC2)c(F)c1 [Compound 71, N-(1-(4-chlorobenzyl)piperidin-4-yl)-4-(1-(3,4-difluorobenzyl)piperidin-4-yloxy)-3-fluorobenzamide] | – | – | < 1 |
| O=C(NC1CCN(Cc2ccccc2)CC1)c1ccc(OC2CCN(Cc3ccc(OC(F)(F)F)cc3)CC2)cc1 [Compound 63, N-(1-benzylpiperidin-4-yl)-4-(1-(4-(trifluoromethoxy)benzyl)piperidin-4-yloxy)benzamide] | – | – | < 1 |
| CC(C)(C)C(=O)N1CCC(Oc2ccc(C(=O)NC3CCN(Cc4ccccc4)CC3)cc2Cl)CC1 [Compound 91, N-(1-benzylpiperidin-4-yl)-3-chloro-4-(1-pivaloylpiperidin-4-yloxy)benzamide] | – | – | < 1 |
| COc1cc(C(=O)NC2CCN(Cc3ccccc3)CC2)ccc1OC1CCN(CCCc2ccccc2)CC1 [Compound 7, N-(1-benzylpiperidin-4-yl)-3-methoxy-4-(1-(3-phenylpropyl)piperidin-4-yloxy)benzamide] | – | – | < 1 |
| O=C(NC1CCN(Cc2ccccc2)CC1)c1ccc(OC2CCN(Cc3ccccc3)CC2)c(Cl)c1 [Compound 14, N-(1-benzylpiperidin-4-yl)-4-(1-benzylpiperidin-4-yloxy)-3-chlorobenzamide] | – | – | < 1 |
| O=C(NC1CCN(Cc2ccncc2)CC1)c1ccc(OC2CCN(c3ccc(C(F)(F)F)cc3)CC2)c(F)c1 [Compound 28, 3-fluoro-N-(1-(pyridin-4-ylmethyl)piperidin-4-yl)-4-(1-(4-(trifluoromethyl)phenyl)piperidin-4-yloxy)benzamide] | – | – | < 1 |
| O=C(NC1CCN(Cc2ccccc2)CC1)c1ccc(OC2CCN(Cc3ccccn3)CC2)c(F)c1 [Compound 39, N-(1-benzylpiperidin-4-yl)-3-fluoro-4-(1-(pyridin-2-ylmethyl)piperidin-4-yloxy)benzamide] | – | – | 1 to 10 |
| O=C(c1ccc(OC2CCN(Cc3ccccc3)CC2)cc1)N1CCN(Cc2ccccn2)CC1 [Compound 105, (4-(1-benzylpiperidin-4-yloxy)phenyl)(4-(pyridin-2-ylmethyl)piperazin-1-yl)methanone] | – | – | 10 to 20 |
| N#Cc1cccc(CN2CCC(Oc3cccc(C(=O)NC4CCN(Cc5ccccc5)CC4)c3)CC2)c1 [Compound 89, N-(1-benzylpiperidin-4-yl)-3-(1-(3-cyanobenzyl)piperidin-4-yloxy)benzamide] | – | – | 1 to 10 |
| COc1ccc(CN2CCC(Oc3ccc(C(=O)N4CCN(C(=O)OC(C)(C)C)CC4)cc3)CC2)cc1 [Compound 96, tert-butyl 4-(4-(1-(4-methoxybenzyl)piperidin-4-yloxy)benzoyl)piperazine-1-carboxylate] | – | – | 1 to 10 |
| O=C(c1ccc(OC2CCN(Cc3ccccc3)CC2)cc1)N1CCN(c2ccccc2)CC1 [Compound 103, (4-(1-benzylpiperidin-4-yloxy)phenyl)(4-phenylpiperazin-1-yl)methanone] | – | – | 20 to 50 |
| N#Cc1ccc(CN2CCC(Oc3ccc(C(=O)NC4CCN(Cc5ccccc5)CC4)cc3F)CC2)cc1 [Compound 41, N-(1-benzylpiperidin-4-yl)-4-(1-(4-cyanobenzyl)piperidin-4-yloxy)-3-fluorobenzamide] | – | – | < 1 |
